The results in this text go back to patent publication US9422267B2, “Fused pyrimidine compounds and use thereof” (Medivation Technologies, Inc., priority 2012, dated 2016).

One may read the pIC50 as −log10 of the IC50, conventionally taken in molar units.

pIC50: −log10 of the molar value.

One experiment relates to LNCaP. The experiment is described as follows: Cell Titer-Glo cell viability: LNCaP. The following applies: Homo sapiens, Prostate cancer, 72 h incubation, Cell Titer-Glo. In kind it is cell-based. (In general: ATP-based viability assays read luminescence as a measure of living cells.)
For the next experiment, the target named is TRKC (NTRK3) (Homo sapiens, UniProt Q16288). Nature of the experiment: Caliper kinase profiling: TRKC (NTRK3). The settings on record: 0.01 μM.
The subject of the next experiment is A549. Nature of the experiment: Cell Titer-Glo cell viability: A549. In kind it is cell-based. The settings on record: Homo sapiens, A549, 72 h, A549, non-small lung carcinoma; 72 h incubation, Cell Titer-Glo.
The next experiment deals with BT-20. The experiment is described as follows: Cell Titer-Glo cell viability: BT-20. The following applies: Homo sapiens; BT-20, breast cancer; 72 h incubation, Cell Titer-Glo. The experiment is classed as cell-based.
Experiment [1] relates to Akt phosphorylation induced by IGF-1R in HT-29 cells. The experiment is described as follows: Western blot analysis of Akt phosphorylation induced by IGF-1R. In kind it is cell-based, Human. The settings on record: then IGF-1 10 ng/mL 10 min, HT-29. (In general: In western blotting, separated proteins are transferred to a membrane and probed.)
A further experiment has as its system MCF-7. Nature of the experiment: Cell Titer-Glo cell viability: MCF-7. The experiment is classed as cell-based. The settings on record: Homo sapiens; MCF7, breast cancer; 72 h incubation, Cell Titer-Glo.
In the next experiment the target is T1, IR (Homo sapiens, UniProt P06213).
T1 construct: purchased Millipore 14-803
The experiment is described as follows: In vitro IR enzymatic assay (ADP-Glo kinase assay). In kind it is biochemical. The following applies: activated IR; read-out: IC50. Here is the method: (§1) IC50 values of the compounds of the invention against IGF-1R and IR were measured in vitro using an ADP-Glo kinase assay Kit (Promega). […] Kinase reactions in both assays were conducted at 30° C. for 20 min with increasing concentrations of compounds of the invention.
On the technique in general: ADP-Glo first removes unused ATP, then detects ADP through luciferase.

The next experiment has as its system SW-620. Nature of the experiment: Cell Titer-Glo cell viability: SW-620. The settings on record: Homo sapiens, SW-620, 72 h, SW-620, metastatic colorectal cancer; 72 h incubation, Cell Titer-Glo. The experiment is classed as cell-based.
The target in the next experiment is IGF1R (Homo sapiens, UniProt P08069). The experiment is described as follows: In vitro IGF-1R enzymatic assay (ADP-Glo kinase assay). The experiment is classed as biochemical. The following applies: activated IGF-1R; read-out: IC50. Also noted: purchased Millipore 14-802. Here is the method:
as §1

In another experiment the target is T2, AXL (Homo sapiens, UniProt P30530).
T2 sequence (P30530 26-894): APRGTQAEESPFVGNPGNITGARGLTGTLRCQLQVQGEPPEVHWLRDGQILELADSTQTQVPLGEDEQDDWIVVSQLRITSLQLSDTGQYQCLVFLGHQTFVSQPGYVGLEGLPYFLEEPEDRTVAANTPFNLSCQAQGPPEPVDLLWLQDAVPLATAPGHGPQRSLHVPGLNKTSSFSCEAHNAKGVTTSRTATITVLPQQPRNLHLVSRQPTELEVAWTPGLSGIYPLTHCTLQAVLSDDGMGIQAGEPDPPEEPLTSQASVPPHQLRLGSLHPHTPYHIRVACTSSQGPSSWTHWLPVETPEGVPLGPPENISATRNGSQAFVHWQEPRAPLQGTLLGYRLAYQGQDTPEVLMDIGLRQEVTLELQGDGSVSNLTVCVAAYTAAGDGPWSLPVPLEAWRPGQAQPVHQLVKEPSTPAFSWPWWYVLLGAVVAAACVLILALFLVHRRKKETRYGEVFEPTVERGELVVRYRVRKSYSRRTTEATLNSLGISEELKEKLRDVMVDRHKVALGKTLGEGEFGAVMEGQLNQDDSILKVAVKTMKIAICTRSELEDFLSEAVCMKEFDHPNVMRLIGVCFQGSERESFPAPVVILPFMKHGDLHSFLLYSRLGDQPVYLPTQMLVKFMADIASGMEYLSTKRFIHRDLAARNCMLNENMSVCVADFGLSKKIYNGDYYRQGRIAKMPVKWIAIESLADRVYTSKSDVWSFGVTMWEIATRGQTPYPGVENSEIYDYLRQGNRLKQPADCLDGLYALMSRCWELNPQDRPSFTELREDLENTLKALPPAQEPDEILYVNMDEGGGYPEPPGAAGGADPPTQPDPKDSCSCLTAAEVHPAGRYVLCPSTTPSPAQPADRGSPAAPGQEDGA
The experiment is described as follows: Caliper kinase profiling: AXL. The following applies: 0.01 μM.

The test system of the next experiment is MDA MB 231. Nature of the experiment: Cell Titer-Glo cell viability: MDA MB 231. In kind it is cell-based. The settings on record: Homo sapiens, MDAMB231, breast cancer, 72 h incubation, Cell Titer-Glo. As to the method: Compound nos. […] This panel of cell lines includes an ER− breast carcinoma, primary breast ductal carcinoma, prostate adenocarcinoma, mammary adenocarcinoma, mammary ductal carcinoma, mammary ductal carcinoma, ovary adenocarcinoma, ER+ breast carcinoma, ER-HER2+ mammary ductal carcinoma and an ER+ mammary ductal carcinoma, respectively.
This assay quantitates the ATP present in order to determine the number of viable cells in culture. Briefly, the compounds were incubated with the cells for 72 h, followed by cell lysis. The resulting luminescent signal is proportional to the amount of ATP present and, therefore, directly proportional to the number of cells present in culture.
Compounds 2b, 5, 6b and 10a were tested along with derivatives in viability assays as described above by Caliper LifeSciences Systems (Hanover, Md.), in A549, HCT-15, HCT-116, MCF-7, MDA-MB-231, OVCAR3, T47D, COLO205, HT-29, BT-20, HCC1187, HL-60, MDA-MB-175, SW-620, and UACC812 cells.

In a further experiment the test system is HCT-15. Nature of the experiment: Cell Titer-Glo cell viability: HCT-15. The experiment is classed as cell-based. The following applies: Homo sapiens, HCT-15, 72 h, HCT15, colon carcinoma; 72 h incubation, Cell Titer-Glo.
The test system of the next experiment is UACC 812. The experiment is described as follows: Cell Titer-Glo cell viability: UACC 812. In kind it is cell-based. The following applies: Homo sapiens; UACC 812, breast cancer; 72 h incubation, Cell Titer-Glo.
For a further experiment, the system named is HL-60. The experiment is described as follows: Cell Titer-Glo cell viability: HL-60. In kind it is cell-based, human. The settings on record: Homo sapiens, HL-60, 72 h, HL60, promyelocytic leukemia; 72 h incubation, Cell Titer-Glo.

Sequence of IGF1R (P08069 31-1367): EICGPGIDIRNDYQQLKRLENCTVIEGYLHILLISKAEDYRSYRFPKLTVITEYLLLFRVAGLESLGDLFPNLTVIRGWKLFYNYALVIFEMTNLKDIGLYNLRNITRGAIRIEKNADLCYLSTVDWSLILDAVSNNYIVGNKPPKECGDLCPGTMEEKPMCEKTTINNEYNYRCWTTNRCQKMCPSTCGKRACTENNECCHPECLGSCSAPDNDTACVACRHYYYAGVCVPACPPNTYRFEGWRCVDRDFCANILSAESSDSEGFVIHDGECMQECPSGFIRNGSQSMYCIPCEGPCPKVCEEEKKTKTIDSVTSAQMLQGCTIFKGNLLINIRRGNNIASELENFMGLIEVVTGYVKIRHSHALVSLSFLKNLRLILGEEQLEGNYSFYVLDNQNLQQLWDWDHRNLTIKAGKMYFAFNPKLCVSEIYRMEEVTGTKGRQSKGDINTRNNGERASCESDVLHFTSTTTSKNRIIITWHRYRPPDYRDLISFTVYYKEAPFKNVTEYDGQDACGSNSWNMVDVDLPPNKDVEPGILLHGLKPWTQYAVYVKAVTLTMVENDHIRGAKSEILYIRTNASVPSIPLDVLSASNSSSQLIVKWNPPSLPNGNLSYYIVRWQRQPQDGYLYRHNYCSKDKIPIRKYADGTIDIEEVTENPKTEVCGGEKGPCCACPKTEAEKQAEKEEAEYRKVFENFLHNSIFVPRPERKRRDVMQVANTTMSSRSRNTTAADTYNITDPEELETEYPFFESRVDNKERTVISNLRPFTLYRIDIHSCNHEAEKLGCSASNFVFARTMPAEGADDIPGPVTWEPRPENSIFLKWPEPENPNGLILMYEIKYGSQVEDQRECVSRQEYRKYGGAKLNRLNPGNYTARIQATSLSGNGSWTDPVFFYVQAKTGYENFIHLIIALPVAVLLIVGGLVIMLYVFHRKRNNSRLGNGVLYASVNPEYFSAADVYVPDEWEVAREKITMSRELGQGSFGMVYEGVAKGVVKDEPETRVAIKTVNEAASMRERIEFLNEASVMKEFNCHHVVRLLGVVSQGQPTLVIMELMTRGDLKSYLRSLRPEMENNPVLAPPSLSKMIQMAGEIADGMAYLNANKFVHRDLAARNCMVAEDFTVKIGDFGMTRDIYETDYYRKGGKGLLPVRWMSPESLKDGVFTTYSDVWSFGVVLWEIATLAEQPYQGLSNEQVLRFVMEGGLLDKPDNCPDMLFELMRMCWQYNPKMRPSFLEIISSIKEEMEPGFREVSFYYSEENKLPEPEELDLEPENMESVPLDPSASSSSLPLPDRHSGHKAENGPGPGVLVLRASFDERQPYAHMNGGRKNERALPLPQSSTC
T1 sequence (P06213 28-1382): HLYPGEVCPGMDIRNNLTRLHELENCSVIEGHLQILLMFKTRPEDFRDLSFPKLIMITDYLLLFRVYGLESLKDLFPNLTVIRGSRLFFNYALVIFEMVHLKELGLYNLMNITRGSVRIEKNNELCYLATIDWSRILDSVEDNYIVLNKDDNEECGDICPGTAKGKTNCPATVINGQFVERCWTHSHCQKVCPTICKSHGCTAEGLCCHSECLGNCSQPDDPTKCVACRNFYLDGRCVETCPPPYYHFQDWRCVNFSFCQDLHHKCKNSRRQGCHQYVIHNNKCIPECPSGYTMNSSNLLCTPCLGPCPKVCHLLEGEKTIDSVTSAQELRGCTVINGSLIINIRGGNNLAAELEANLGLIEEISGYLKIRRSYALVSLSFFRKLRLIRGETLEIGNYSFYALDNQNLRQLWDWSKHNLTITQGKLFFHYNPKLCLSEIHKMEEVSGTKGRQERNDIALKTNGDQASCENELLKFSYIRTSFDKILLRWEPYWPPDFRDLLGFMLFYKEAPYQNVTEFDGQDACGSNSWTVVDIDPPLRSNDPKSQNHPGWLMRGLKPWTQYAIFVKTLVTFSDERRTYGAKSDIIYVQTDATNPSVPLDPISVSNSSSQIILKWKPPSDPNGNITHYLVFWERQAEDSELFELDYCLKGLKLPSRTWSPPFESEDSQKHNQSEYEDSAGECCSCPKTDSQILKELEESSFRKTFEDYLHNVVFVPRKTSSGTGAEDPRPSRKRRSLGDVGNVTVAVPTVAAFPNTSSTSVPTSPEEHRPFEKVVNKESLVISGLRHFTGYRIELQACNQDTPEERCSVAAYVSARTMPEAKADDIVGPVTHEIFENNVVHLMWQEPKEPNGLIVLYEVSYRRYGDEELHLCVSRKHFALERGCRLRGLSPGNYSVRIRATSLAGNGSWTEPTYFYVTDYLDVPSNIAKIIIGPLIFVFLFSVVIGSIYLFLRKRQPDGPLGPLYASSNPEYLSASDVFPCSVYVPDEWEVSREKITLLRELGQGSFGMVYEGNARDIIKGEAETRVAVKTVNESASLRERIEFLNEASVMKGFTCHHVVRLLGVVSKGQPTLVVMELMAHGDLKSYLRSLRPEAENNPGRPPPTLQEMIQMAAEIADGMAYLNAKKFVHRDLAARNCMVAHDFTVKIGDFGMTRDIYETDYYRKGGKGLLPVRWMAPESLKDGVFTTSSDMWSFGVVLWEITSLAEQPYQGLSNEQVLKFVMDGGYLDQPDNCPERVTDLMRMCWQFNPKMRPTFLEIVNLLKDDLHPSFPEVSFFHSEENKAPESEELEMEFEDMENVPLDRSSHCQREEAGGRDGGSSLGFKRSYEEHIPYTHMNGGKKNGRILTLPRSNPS
Sequence of TRKC (NTRK3) (Q16288 32-839): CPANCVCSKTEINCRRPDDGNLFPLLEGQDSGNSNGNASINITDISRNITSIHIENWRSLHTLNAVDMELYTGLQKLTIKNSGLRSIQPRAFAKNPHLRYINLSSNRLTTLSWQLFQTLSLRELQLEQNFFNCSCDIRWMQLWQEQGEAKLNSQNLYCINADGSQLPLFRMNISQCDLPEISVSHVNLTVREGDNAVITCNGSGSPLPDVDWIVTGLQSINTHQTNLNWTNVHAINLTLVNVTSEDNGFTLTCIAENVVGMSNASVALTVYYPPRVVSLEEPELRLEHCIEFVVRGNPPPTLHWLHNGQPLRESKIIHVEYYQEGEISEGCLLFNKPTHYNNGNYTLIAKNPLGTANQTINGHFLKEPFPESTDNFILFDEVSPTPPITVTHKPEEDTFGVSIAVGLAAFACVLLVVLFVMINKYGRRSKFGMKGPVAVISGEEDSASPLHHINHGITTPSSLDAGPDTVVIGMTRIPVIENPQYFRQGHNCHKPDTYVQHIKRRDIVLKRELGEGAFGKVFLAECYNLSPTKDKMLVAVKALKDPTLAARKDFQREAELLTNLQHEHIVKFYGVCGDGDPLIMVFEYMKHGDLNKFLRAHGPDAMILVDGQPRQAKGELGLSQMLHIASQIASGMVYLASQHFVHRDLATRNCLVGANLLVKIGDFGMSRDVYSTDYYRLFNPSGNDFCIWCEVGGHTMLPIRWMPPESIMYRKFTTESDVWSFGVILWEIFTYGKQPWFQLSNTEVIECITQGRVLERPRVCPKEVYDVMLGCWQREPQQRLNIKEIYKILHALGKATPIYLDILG
Experimental for AXL: (§2) The compound was tested at concentrations of 1.0×10^−8 and 1.0×10^−9 M in the RapidKinase192™ panel in duplicate. […] The screening was performed using the Caliper EZReader2, a 4-sipper LabChip, and ProfilerPro Kinase Selectivity Assay Kits 1 and 2. The assay measures the conversion of a fluorescent peptide substrate to a phosphorylated product. Briefly, the reaction mixture was introduced through a capillary sipper onto the microfluidic chip, where the substrate and product were electrophoretically separated and detected by laser-induced fluorescence. The time-dependent fluorescence signal indicates the extent of the reaction.
(§3) The kinases tested were AurA, AurB, AurC, AXL, FAK2, IGF1R, InsR, Mer, MET, TrkB and TrkC.
(§4) The assays were conducted using the Caliper LabChip 3000 and a 12-sipper LabChip as described above.
Experimental for TRKC (NTRK3): as §2, §3, §4

As to `O=C(Nc1cnccn1)C1CCCN1c1nc2c(c(Nc3cc(C4CC4)[nH]n3)n1)CCC2` (single isomer, unassigned) [Compound 6b], the pIC50 is 7.00 with LNCaP; over 6.00 with A549; 6.00 in the experiment with BT-20; over 6.00 in the experiment with MCF-7; 7.38 at IR; over 6.00 with SW-620. Further, the pIC50 is 8.19 at IGF1R; over 6.00 in the experiment with MDA MB 231; 6.00 in the experiment on HCT-15; 6.00 in the experiment with UACC 812; over 6.00 in the experiment with HL-60. In addition, the “inhibition of TrkC in panel of 11 kinases” value against TRKC (NTRK3) was “strongly inhibited”. Moreover, the “phosphorylated AKT levels normalized to actin levels (pAKT/actin)” value is 0.87 in [1] (0.1 nM compound 2 h), 0.18 in experiment [1] (1 nM compound 2 h), 0.00 in experiment [1] (10 nM compound 2 h) and 0.00 in experiment [1] (100 nM compound 2 h). Further, the “inhibition of AXL in panel of 11 kinases” value against AXL is listed as “strongly inhibited”.
